Results from ChEMBL document CHEMBL1133332, “Conversion of a polysaccharide to nitric oxide-releasing form. Dual-mechanism anticoagulant activity of diazeniumdiolated heparin” (2000).

Columns and labels:
Homo sapiens [1] = species: Homo sapiens; assay: compound (at 25 micro g/ml) was tested for antithrombotic activity; assay type: functional
Homo sapiens [2] = species: Homo sapiens; assay: Compound (at 25 micro g/ml) was tested for antithrombotic activity in presence of heparin; assay type: functional

Structure (SMILES)	Thrombin time (Homo sapiens [1])	Thrombin time (Homo sapiens [2])
CO[C@H]1O[C@H](COS(=O)(=O)O)[C@@H](O[C@@H]2O[C@H](C(=O)O)[C@@H](OC)[C@H](O)[C@H]2O)[C@H](OS(=O)(=O)O)[C@H]1NS(=O)(=O)O [HEPARIN/DIAZENIUMDIOLATE CONJUGATE]	92 s	–
COCO/N=[N+](\[O-])N1CCN(C[C@H]2O[C@H](OC)[C@H](NS(=O)(=O)O)[C@@H](OS(=O)(=O)O)[C@@H]2O[C@@H]2O[C@H](C(=O)O)[C@@H](OC)[C@H](O)[C@H]2O)CC1 [HEPARIN/DIAZENIUMDIOLATE CONJUGATE]	–	80 s
CO[C@H]1O[C@H](CN2CCNCC2)[C@@H](O[C@@H]2O[C@H](C(=O)O)[C@@H](OC)[C@H](O)[C@H]2O)[C@H](OS(=O)(=O)O)[C@H]1NS(=O)(=O)O [HEPARIN/DIAZENIUMDIOLATE CONJUGATE]	–	31 s
